What all share (assay): relative viability (nuclei count vs DMSO), 5 days (fraction); higher = more cells survive
Compound in experiment [1]: CC1CC(=O)N(C2=CN=C(N=C2N1C3CCCC3)NC4=C(C=C(C=C4)C(=O)NC5CCN(CC5)C)OC)C [NPK76-II-72-1] + O=C(CCCCCCC(=O)Nc1ccccc1)NO [Vorinostat] (partner 1 µM)
Put shortly:
(§1)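 The day after seeding in 1536-well plates, lung cancer cell lines were treated by pin tool with a single drug, or with a fixed anchor-drug dose together with five library-drug doses (not always all listed) in √10 steps. After 5 days, a combined fix-and-stain solution (final 0.05% Triton X-100, 1% formaldehyde, 1 ug/ml Hoechst) was added. Nuclei counted on 4× images gave relative viability as treated counts over vehicle counts, reported as the median of duplicate plates.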

Compound in the experiment “BI-2536 + Vorinostat”: CC[C@@H]1C(=O)N(C)c2cnc(Nc3ccc(C(=O)NC4CCN(C)CC4)cc3OC)nc2N1C1CCCC1 [BI-2536] + O=C(CCCCCCC(=O)Nc1ccccc1)NO [Vorinostat] (partner 1 µM)
Put shortly:
as §1

Compound in the experiment “BI-2536 + Decitabine”: CC[C@@H]1C(=O)N(C)c2cnc(Nc3ccc(C(=O)NC4CCN(C)CC4)cc3OC)nc2N1C1CCCC1 [BI-2536] + Nc1ncn([C@H]2C[C@H](O)[C@@H](CO)O2)c(=O)n1 [Decitabine] (partner 2 µM)
The method in brief:
as §1

Compound in the experiment “BI-2536 + Dasatinib”: CC[C@@H]1C(=O)N(C)c2cnc(Nc3ccc(C(=O)NC4CCN(C)CC4)cc3OC)nc2N1C1CCCC1 [BI-2536] + Cc1nc(Nc2ncc(C(=O)Nc3c(C)cccc3Cl)s2)cc(N2CCN(CCO)CC2)n1 [Dasatinib] (partner 0.075 µM)
Put shortly: as §1

Relative viability data for six cell lines are collected here from the supplement of paper PMC10307832.

Take NCI-H596: the relative viability in experiment [1] (first compound 0.01 µM) worked out at 0.718; in experiment [1] (first compound 0.03162 µM), 0.615; in experiment [1] (first compound 0.1 µM), 0.696; in experiment [1] (first compound 0.3162 µM), 0.631; in experiment [1] (first compound 1 µM), 0.723; with BI-2536 + Vorinostat (first compound 0.01 µM), 0.644. Also, the relative viability turned out to be 0.664 with BI-2536 + Vorinostat (first compound 0.03162 µM); 0.551 in the experiment with BI-2536 + Vorinostat (first compound 0.1 µM); 0.228 in the experiment with BI-2536 + Vorinostat (first compound 0.3162 µM); 0.206 in the experiment with BI-2536 + Vorinostat (first compound 1 µM); 1.07 in the experiment with BI-2536 + Decitabine (first compound 0.01 µM); 1.25 with BI-2536 + Decitabine (first compound 0.03162 µM). The relative viability with BI-2536 + Decitabine (first compound 0.1 µM) worked out at 0.996; with BI-2536 + Decitabine (first compound 0.3162 µM), 0.611; with BI-2536 + Decitabine (first compound 1 µM), 0.417; with BI-2536 + Dasatinib (first compound 0.01 µM) it was 0.574; in the experiment with BI-2536 + Dasatinib (first compound 0.03162 µM), 0.673; in the experiment with BI-2536 + Dasatinib (first compound 0.1 µM) it was 0.449. Besides, the results for the relative viability with BI-2536 + Dasatinib (first compound 0.3162 µM) and with BI-2536 + Dasatinib (first compound 1 µM) were 0.25 and 0.273, respectively.

On to NCI-H23, for which the relative viability in experiment [1] (first compound 0.01 µM) was 0.609; in experiment [1] (first compound 0.03162 µM), 0.657; in experiment [1] (first compound 0.1 µM) it was 0.637; in experiment [1] (first compound 0.3162 µM) it was 0.515; in experiment [1] (first compound 1 µM) it was 0.627; with BI-2536 + Vorinostat (first compound 0.01 µM) it was 0.527. Further, the relative viability with BI-2536 + Vorinostat (first compound 0.03162 µM) was 0.555; with BI-2536 + Vorinostat (first compound 0.1 µM), 0.133; with BI-2536 + Vorinostat (first compound 0.3162 µM), 0.133; with BI-2536 + Vorinostat (first compound 1 µM), 0.157; with BI-2536 + Decitabine (first compound 0.01 µM) it was 0.3; with BI-2536 + Decitabine (first compound 0.03162 µM), 0.364. The relative viability in the experiment with BI-2536 + Decitabine (first compound 0.1 µM) came to 0.244; with BI-2536 + Decitabine (first compound 0.3162 µM), 0.155; in the experiment with BI-2536 + Decitabine (first compound 1 µM) it was 0.168; in the experiment with BI-2536 + Dasatinib (first compound 0.01 µM), 0.803; with BI-2536 + Dasatinib (first compound 0.03162 µM) it was 1.02; with BI-2536 + Dasatinib (first compound 0.1 µM), 0.285. Besides, the relative viability with BI-2536 + Dasatinib (first compound 0.3162 µM) stood at 0.126; with BI-2536 + Dasatinib (first compound 1 µM), 0.107.

Regarding LCLC-97TM1, the relative viability in experiment [1] (first compound 0.01 µM) was found to be 0.682; in experiment [1] (first compound 0.03162 µM), 1.03; in experiment [1] (first compound 0.1 µM), 0.561; in experiment [1] (first compound 0.3162 µM), 0.61; in experiment [1] (first compound 1 µM) it was 0.814; in the experiment with BI-2536 + Vorinostat (first compound 0.01 µM), 0.721. Besides, the relative viability in the experiment with BI-2536 + Vorinostat (first compound 0.03162 µM) was found to be 0.787; with BI-2536 + Vorinostat (first compound 0.1 µM) it was 0.0652; with BI-2536 + Vorinostat (first compound 0.3162 µM), 0.078; in the experiment with BI-2536 + Vorinostat (first compound 1 µM) it was 0.0571; with BI-2536 + Decitabine (first compound 0.01 µM), 0.228; in the experiment with BI-2536 + Decitabine (first compound 0.03162 µM), 0.277. Further, the relative viability with BI-2536 + Decitabine (first compound 0.1 µM) was 0.163; with BI-2536 + Decitabine (first compound 0.3162 µM), 0.0912; with BI-2536 + Decitabine (first compound 1 µM), 0.0986; with BI-2536 + Dasatinib (first compound 0.01 µM) it was 0.943; with BI-2536 + Dasatinib (first compound 0.03162 µM), 0.837; in the experiment with BI-2536 + Dasatinib (first compound 0.1 µM), 0.725. In addition, the relative viability with BI-2536 + Dasatinib (first compound 0.3162 µM) was determined as 0.155; with BI-2536 + Dasatinib (first compound 1 µM), 0.12.

As for EPLC-272H, the relative viability in experiment [1] (first compound 0.01 µM) is 0.403; in experiment [1] (first compound 0.03162 µM), 0.4; in experiment [1] (first compound 0.1 µM), 0.456; in experiment [1] (first compound 0.3162 µM) it was 0.574; in experiment [1] (first compound 1 µM), 0.41; in the experiment with BI-2536 + Vorinostat (first compound 0.01 µM), 0.339. Also, the relative viability with BI-2536 + Vorinostat (first compound 0.03162 µM) was found to be 0.126; in the experiment with BI-2536 + Vorinostat (first compound 0.1 µM), 0.0766; in the experiment with BI-2536 + Vorinostat (first compound 0.3162 µM) it was 0.112; with BI-2536 + Vorinostat (first compound 1 µM), 0.0972; with BI-2536 + Decitabine (first compound 0.01 µM), 0.359; with BI-2536 + Decitabine (first compound 0.03162 µM), 0.363. For the same cell line, the relative viability in the experiment with BI-2536 + Decitabine (first compound 0.1 µM) was found to be 0.258; with BI-2536 + Decitabine (first compound 0.3162 µM), 0.0826; in the experiment with BI-2536 + Decitabine (first compound 1 µM) it was 0.131; in the experiment with BI-2536 + Dasatinib (first compound 0.01 µM) it was 0.327; with BI-2536 + Dasatinib (first compound 0.03162 µM) it was 0.357; with BI-2536 + Dasatinib (first compound 0.1 µM), 0.0724. Further, the relative viability with BI-2536 + Dasatinib (first compound 0.3162 µM) stood at 0.0766; in the experiment with BI-2536 + Dasatinib (first compound 1 µM), 0.0856.

With NCI-H522, the relative viability in experiment [1] (first compound 0.01 µM) came out at 0.736; in experiment [1] (first compound 0.03162 µM) it was 0.902; in experiment [1] (first compound 0.1 µM), 0.995; in experiment [1] (first compound 1 µM) it was 0.79; with BI-2536 + Vorinostat (first compound 0.01 µM), 0.785; with BI-2536 + Vorinostat (first compound 0.03162 µM), 0.933. The relative viability with BI-2536 + Vorinostat (first compound 0.1 µM) was found to be 0.533; in the experiment with BI-2536 + Vorinostat (first compound 0.3162 µM), 0.277; with BI-2536 + Vorinostat (first compound 1 µM) it was 0.284; with BI-2536 + Decitabine (first compound 0.01 µM), 0.715; with BI-2536 + Decitabine (first compound 0.03162 µM), 0.626; with BI-2536 + Decitabine (first compound 0.1 µM) it was 0.698. In addition, the relative viability came out at 0.312 with BI-2536 + Decitabine (first compound 0.3162 µM); 0.358 in the experiment with BI-2536 + Decitabine (first compound 1 µM); 0.687 with BI-2536 + Dasatinib (first compound 0.01 µM); 0.989 in the experiment with BI-2536 + Dasatinib (first compound 0.03162 µM); 0.607 in the experiment with BI-2536 + Dasatinib (first compound 0.1 µM); 0.341 with BI-2536 + Dasatinib (first compound 0.3162 µM). Moreover, the relative viability with BI-2536 + Dasatinib (first compound 1 µM) amounted to 0.334.

As to NCI-H1915, the relative viability in experiment [1] (first compound 0.01 µM) was found to be 0.504; in experiment [1] (first compound 0.03162 µM), 0.537; in experiment [1] (first compound 0.1 µM) it was 0.483; in experiment [1] (first compound 0.3162 µM), 0.442; in experiment [1] (first compound 1 µM), 0.574; with BI-2536 + Vorinostat (first compound 0.01 µM), 0.464. Also, the relative viability with BI-2536 + Vorinostat (first compound 0.03162 µM) came out at 0.478; in the experiment with BI-2536 + Vorinostat (first compound 0.1 µM) it was 0.295; in the experiment with BI-2536 + Vorinostat (first compound 0.3162 µM), 0.0928; in the experiment with BI-2536 + Vorinostat (first compound 1 µM), 0.0626; with BI-2536 + Decitabine (first compound 0.01 µM), 0.261; in the experiment with BI-2536 + Decitabine (first compound 0.03162 µM), 0.238. The relative viability with BI-2536 + Decitabine (first compound 0.1 µM) was determined as 0.227; with BI-2536 + Decitabine (first compound 0.3162 µM), 0.108; with BI-2536 + Decitabine (first compound 1 µM) it was 0.119; with BI-2536 + Dasatinib (first compound 0.01 µM) it was 0.292; in the experiment with BI-2536 + Dasatinib (first compound 0.03162 µM) it was 0.354; in the experiment with BI-2536 + Dasatinib (first compound 0.1 µM), 0.139. Moreover, the relative viability with BI-2536 + Dasatinib (first compound 0.3162 µM) came out at 0.156; with BI-2536 + Dasatinib (first compound 1 µM), 0.0656.
